Data from patent US20250000819A1, “Anti-hypoxic/anoxic injury use of a magnolol and/or honokiol aromatic ring amino-substituted derivative, and a pharmaceutical composition” (BEIJING HONGHUI MEDITECH CO., LTD., priority 2021, published 2025).

Tests used:
Format in all cases: in vivo, rat
[1] = tested on: SD male rats, hypoxia (the oxygen content was 11%) treatment; experiment: Blood gas analysis of femoral artery blood in hypoxia-treated rats
Experimental: 2. Animal model: SPF-grade SD male rats, 220-240 g of the weight, and hypoxia (the oxygen content was 11%) treatment. 3. Experimental grouping: a hypoxia treatment control group, there were 4 rats in each group; and a hypoxia treatment administration group, there were 4 rats in each group. 4. Administration mode: before the hypoxia treatment, a single intravenous injection was administered to each rat in the hypoxia treatment administration group. 5. […] 2. Animal model: SPF-grade SD male rats, 220-240 g of the weight, and hypoxia (the oxygen content was 11%) treatment. 3. Experimental grouping: a hypoxia treatment control group, there were 4 rats in each group; and a hypoxia treatment administration group, there were 4 rats in each group. 4. Administration mode: before the hypoxia treatment, a single intravenous injection was administered to each rat in the hypoxia treatment administration group. 5. […] 2. Animal model: SPF-grade SD male rats, 220-240 g of the weight, and hypoxia (the oxygen content was 11%) treatment. 3. Experimental grouping: a hypoxia treatment control group, there were 4 rats in each group; and a hypoxia treatment administration group, there were 4 rats in each group. 4. Administration mode: single gavage administration of each rat in the hypoxic treatment group prior to hypoxic treatment. 5. […] 2. Animal model: SPF-grade SD male rats, 220-240 g of the weight, and hypoxia (the oxygen content was 11%) treatment. 3. Experimental grouping: a hypoxia treatment control group, there were 4 rats in each group; and a hypoxia treatment administration group, there were 4 rats in each group. 4. Administration mode: before the hypoxia treatment, a single intravenous injection was administered to each rat in the hypoxia treatment administration group. 5. […] 2. Animal model: SPF-grade SD male rats, 220-240 g of the weight, and hypoxia (the oxygen content was 11%) treatment. 3. Experimental grouping: a hypoxia treatment control group, there were 4 rats in each group; and a hypoxia treatment administration group, there were 4 rats in each group. 4. Administration mode: before the hypoxia treatment, a single intravenous injection was administered to each rat in the hypoxia treatment administration group. 5. […]

[2] = tested on: SD male rats, hypoxia (the oxygen content was 11%) treatment; experiment: Respiratory rate evaluated during blood collection in hypoxia-treated rats; details: p<0.05
Experimental: 2. Animal model: SPF-grade SD male rats, 220-240 g of the weight, and hypoxia (the oxygen content was 11%) treatment. 4. Administration mode: before the hypoxia treatment, a single intravenous injection was administered to each rat in the hypoxia treatment administration group. 6. Respiratory rate: the rat respiratory rate was evaluated during blood collection. 2. Animal model: SPF-grade SD male rats, 220-240 g of the weight, and hypoxia (the oxygen content was 11%) treatment. 4. Administration mode: before the hypoxia treatment, a single intravenous injection was administered to each rat in the hypoxia treatment administration group. 6. Respiratory rate: the rat respiratory rate was evaluated during blood collection. 2. Animal model: SPF-grade SD male rats, 220-240 g of the weight, and hypoxia (the oxygen content was 11%) treatment. 4. Administration mode: single gavage administration of each rat in the hypoxic treatment group prior to hypoxic treatment. 6. Respiratory rate: the rat respiratory rate was evaluated during blood collection. 2. Animal model: SPF-grade SD male rats, 220-240 g of the weight, and hypoxia (the oxygen content was 11%) treatment. 4. Administration mode: before the hypoxia treatment, a single intravenous injection was administered to each rat in the hypoxia treatment administration group. 2. Animal model: SPF-grade SD male rats, 220-240 g of the weight, and hypoxia (the oxygen content was 11%) treatment. 4. Administration mode: before the hypoxia treatment, a single intravenous injection was administered to each rat in the hypoxia treatment administration group. 6. Respiratory rate: the rat respiratory rate was evaluated during blood collection.

[3] = tested on: lung tissues of SD rats, hypoxia (the oxygen content was 11%) treatment; experiment: H&E staining / pathological analysis of lung tissue paraffin sections after hypoxia treatment; details: 1 mg/kg single intravenous injection, after 24 h of hypoxia treatment
Experimental: 2. Animal model: SPF-grade SD male rats, 220-240 g of the weight, and hypoxia (the oxygen content was 11%) treatment. 4. Administration mode: before the hypoxia treatment, a single intravenous injection was administered to each rat in the hypoxia treatment administration group. 7. Hematoxylin-eosin (H&E) staining: Lung tissues of the hypoxia treatment (24 h) control group and the hypoxia treatment (24 h) administration group (dose: 1 mg/kg) were taken for paraffin section preparation, staining, and case analysis. 1) Paraffin sections were dewaxed to water: the sections were sequentially placed in xylene I for 20 min, xylene II for 20 min, anhydrous ethanol I for 5 min, anhydrous ethanol II for 5 min, and 75% alcohol for 5 min, and finally washed with tap water. 2) Hematoxylin staining: the sections were placed in hematoxylin staining solution and stained for 3-5 min, then washed with the tap water, and differentiated with differentiation solution, then washed with the tap water. It returned to blue by blue returning solution, and finally it was washed with running water. 3) Eosin staining: the sections were sequentially dehydrated with 85% and 95% of gradient alcohol for 5 min respectively, and placed in eosin staining solution and stained for 5 min. […]

C=CCc1cc(N)c(O)c(-c2ccc(O)c(CC=C)c2)c1 [Compound 1, 3′, 5-diallyl-3-amino-[1,1′-biphenyl]-2,4′-diol]
blood oxygen partial pressure (PO2) vs control group ([1]; 0.58 mg/kg single intravenous injection before hypoxia, after 24 h of hypoxia treatment, p=0.0012): significantly higher than those of the control group | blood oxygen saturation (SO2) vs control group ([1]; 0.58 mg/kg single intravenous injection before hypoxia, after 24 h of hypoxia treatment, p=0.019): significantly higher than those of the control group | respiratory rate (RR) vs control group ([2]; 0.58 mg/kg single intravenous injection, after 24 h of hypoxia treatment): lower than that of the control group, and the different was significant

C=CCc1cc(NC(C)=O)c(O)c(-c2ccc(O)c(CC=C)c2)c1 [Compound 4, N-(3′,5-diallyl-2,4′-dihydroxy-[1,1′-biphenyl]-3-yl) acetamide]
blood oxygen saturation (SO2) vs control group ([1]; 0.67 mg/kg single intravenous injection, after 24 h of hypoxia treatment, p=0.0023): higher than those of the control group | blood oxygen partial pressure (PO2) vs control group ([1]; 0.67 mg/kg single intravenous injection, after 24 h of hypoxia treatment, p=0.023): higher than those of the control group | respiratory rate (RR) vs control group ([2]; 0.67 mg/kg single intravenous injection, after 24 h of hypoxia treatment): lower than that of the control group, and the difference was significant

C=CCc1cc(NC(=O)[C@@H](N)CCCCN)c(O)c(-c2ccc(O)c(CC=C)c2)c1.Cl.Cl [Compound 2, (S)-2,6-diamino-N-(3′,5-diallyl-2,4′-dihydroxy-[1,1′-biphenyl]-3-yl) hexanamide dihydrochloride]
blood oxygen saturation (SO2) vs control group ([1]; 0.25 mg/kg single intravenous injection, after 1 h of hypoxia treatment, p=0.023): higher than that of the control group, and the difference was significant | blood oxygen partial pressure (PO2) vs control group ([1]; 0.25 mg/kg single intravenous injection, after 1 h of hypoxia treatment, p=0.059): higher than that of the control group, but the difference was not significant | blood oxygen saturation (SO2) vs control group ([1]; 0.25 mg/kg single intravenous injection, after 6 h of hypoxia treatment, p=0.015): higher than those of the control group, and the difference was significant | blood oxygen partial pressure (PO2) vs control group ([1]; 0.25 mg/kg single intravenous injection, after 6 h of hypoxia treatment, p=0.018): higher than those of the control group, and the difference was significant | blood oxygen saturation (SO2) vs control group ([1]; 1 mg/kg single intravenous injection, after 6 h of hypoxia treatment, p=0.0012): higher than that of the control group, and the difference was significant | blood oxygen partial pressure (PO2) vs control group ([1]; 1 mg/kg single intravenous injection, after 6 h of hypoxia treatment, p=0.003): higher than that of the control group, and the difference was significant | blood oxygen saturation (SO2) vs control group ([1]; 1 mg/kg single intravenous injection, after 24 h of hypoxia treatment, p=0.001): higher than those of the control group, and the difference was significant | blood oxygen partial pressure (PO2) vs control group ([1]; 1 mg/kg single intravenous injection, after 24 h of hypoxia treatment, p=0.0012): higher than those of the control group, and the difference was significant | blood oxygen saturation (SO2) vs control group ([1]; 40 mg/kg single gavage (intragastric) administration, after 24 h of hypoxia treatment, p=0.016): higher than those of the control group, and the difference was significant | blood oxygen partial pressure (PO2) vs control group ([1]; 40 mg/kg single gavage (intragastric) administration, after 24 h of hypoxia treatment, p=0.036): higher than those of the control group, and the difference was significant | respiratory rate (RR) vs control group ([2]; 1 mg/kg single intravenous injection, after 6 h of hypoxia treatment): lower than that of the control group, and the difference was significant | respiratory rate (RR) vs control group ([2]; 1 mg/kg single intravenous injection, after 24 h of hypoxia treatment): lower than that of the control group, and the difference was significant | respiratory rate (RR) vs control group ([2]; 40 mg/kg single gavage (intragastric) administration, after 24 h of hypoxia treatment): lower than that of the control group, and the difference was significant | lung tissue injuries (H&E pathological analysis) vs control group [3]: able to alleviate the tissue injuries caused by hypoxia (anoxia)

C=CCc1cc(NC(=O)[C@@H](N)CCSC)c(O)c(-c2ccc(O)c(CC=C)c2)c1.Cl [Compound 3, (S)-2-amino-N-(3′,5-diallyl-2,4′-dihydroxy-[1,1′-biphenyl]-3-yl)-4-(methylthio) butanamide hydrochloride]
blood oxygen saturation (SO2) vs control group ([1]; 0.93 mg/kg single intravenous injection, after 24 h of hypoxia treatment, p=0.06): higher than that of the control group | respiratory rate (RR) vs control group ([2]; 0.93 mg/kg single intravenous injection, after 24 h of hypoxia treatment): lower than that of the control group, and the difference was significant
